This is an account of results in article PMC12073402, “A Selective MAP3K1 Inhibitor Facilitates Discovery of NPM1 as a Member of the Network” (Molecules, 2025).

Read-outs that look alike come from different tables or passages of the source.

Series [1] has as its system TNFα-induced, MAP3K1-mediated IKKβ phosphorylation. Briefly: AlphaLISA phospho-IKKβ / total IKKβ assay in MiaPaCa2 cells. To be noted: 20, 10, 5 μM, 30 min pretreatment, 10 ng/mL TNFα. Format: cell-based, Human. The text has this: MAP3K1 was previously shown to phosphorylate IKKβ [12] and regulate NF-κB signaling. Therefore, we validated the ability of 51-106 to inhibit MAP3K1 by probing the phosphorylation status of the known substrate, IKKβ, using an AlphaLISA assay. The pancreatic cancer cells (MiaPaCa2) were subjected to a 30-min pretreatment with varying concentrations of 51-106, followed by TNFα stimulation to induce IKKβ phosphorylation. Following a 15-min stimulation, the levels of phospho-IKKβ and total IKKβ were quantified. […] (Figure 3A). Next, we evaluated the efficacy of 51-106 in a cell-based reporter assay utilizing a HeLa cell line that specifically responds to TNFα induced expression of a luciferase reporter gene that is under the control of an NF-κB response element.
A suspension of MiaPaCa2 cells (2 × 10^5/well) in 200 μL media was plated in a flat, clear-bottomed, sterile, 48-well tissue culture plate (Cat# 353230; Corning; Corning, NY, USA). The cells were allowed to attach to the plate for ~8 h in a humidified 5% CO2 incubator at 37 °C. […] Phospho-IKKβ levels were normalized to total […], and fold change was calculated compared to DMSO treatment. […] The statistical significance between groups was determined via unpaired t-tests coupled with post hoc analysis with Welch’s correction.

Series [2] can be described thus: Pharmacokinetic studies, oral and intravenous dosing. Format: in vivo, CD1 mice. The settings on record: for MRT inf: read-out: MRT 0-∞. How it is done: Next, we conducted pharmacokinetic (PK) studies with 51-106. Briefly, mice were dosed either intravenously (IV) or orally with 10 mg/kg of 51-106 and sampled at 0.083, 0.25, 0.5, 1, 2, 4, 8, and 24 h. […] This was accomplished by strategic placement of fluorine atoms at metabolically vulnerable sites on the molecule.
Pharmacokinetic studies (10 mg/kg oral and intravenous dosing) were performed following previously reported methods. Sample analysis was performed by liquid chromatography–tandem mass spectrometry (SCIEX QTRAP 4000 LC-MS/MS System). The pharmacokinetic parameters were determined using non-compartmental analyses module of WinNonlin 1.5.

The mark [3] stands for this setting: mouse, in vivo, CD1 mice, 10 mg/kg, Intravenous.
The mark [4] stands for this setting: mouse, in vivo, CD1 mice, 10 mg/kg, Oral.

In the case of `Cn1cc(-c2cnc3ccc(NC(=O)Nc4ccc(F)c(C(F)(F)F)c4)cc3n2)cn1` [51-106, 1-(4-Fluoro-3-(trifluoromethyl)phenyl)-3-(3-(1-methyl-1H-pyrazol-4-yl)quinoxalin-6-yl)urea], the “TNFα-induced, MAP3K1-mediated IKKβ phosphorylation (phospho-IKKβ / total IKKβ)” value in series [1] is “inhibits TNFα-induced, MAP3K1-mediated IKKβ phosphorylation in a dose-dependent manner”. Also, in series [2] (51-106 compared to analog 84), the “improvement of oral bioavailability” value is on record as ~ 3.5 fold and the “improvement of t1/2 in mice” value is ~ 1.4 fold. In addition, the bioavailability in series [2] (CD1, mouse, in vivo, po, 10 mg/kg, CD1 mice, 10 mg/kg, Oral, read-out: Bioavailability (%F)) is 62.3%. In series [2] (CD1 mice, 10 mg/kg, Oral), the “Bioavailability (%F)” value is listed as roughly 62%. For the same molecule, in series [2] (setting [3]), the AUC(0-inf) was 9120 ± 755 ng·h/mL, the exposure AUC(0-t) came out at 8960 ± 812 ng·h/mL, the highest level (Cmax) was 4380 ± 447 ng/mL and the half-life was 1.7 ± 0.3 h. In series [2] (setting [3]), the MRT inf amounted to 2.2 ± 0.3 h. In addition, the Vd in series [2] (mouse, in vivo, CD1 mice, 10 mg/kg, Intravenous, read-out: Vss) stood at 2.5 ± 0.3 L/kg. In series [2] (setting [4]), the AUC(0-inf) amounted to 5680 ± 1930 ng·h/mL, the area under the curve AUC(0-t) came out at 4580 ± 2500 ng·h/mL, the concentration peaked (Cmax) at 689 ± 190 ng/mL and the time of peak concentration (Tmax) amounted to 2.7 h. Further, in series [2] (setting [4]), the half-life was 3.5 h and the MRT inf is 6.4 ± 1.5 h.
